Converted amounts (≈) assume the structure as drawn.
Key:
pro MMP-9 protein = test: Inhibitory activity against proMMP-9 protein production (TNF α-stimulated mouse peritoneal exudate cells, ELISA); format: cell-based, C57BL/6J mice; conditions: relative activity when the value of Comparative Agent 1 (IC50 = 10.04 ± 4.11 μM) is 10, on the increase of pro MMP-9 by TNF α 25 ng/ml, 24 hours, read-out: IC50 (μM)*
Protocol: (§1) To 7- to 9-week male C57BL/6J mice (purchased from CLEA Japan, Inc. or Japan SLC, Inc.), Zymosan A (SIGMA) derived from budding yeasts which is adjusted to be 1 mg/ml in a phosphate buffer solution (PBS, 10010-49, Invitrogen) was administered intraperitoneally at 1 ml per mouse to induce peritonitis. Three days later, filter-sterilized cell recovery buffer (2 mM EDTA, 0.5% bovine serum albumin, PBS, pH 7.4) was administered intraperitoneally at 5 ml per mouse to recover peritoneal exudata cells. The cells went through a cell strainer (70 μm nylon, FALCON) and were then washed twice with a Hanks solution (Invitrogen). The cells were suspended in 10% fetal calf serum-containing Dulbecco's modified Eagle's culture medium (Invitrogen). The suspension was seeded on a plate with 48 wells, after 6 hours, the culture medium was completely exchanged. After culturing for another 18 hours, test compounds were added at 0.02 to 20 μM of the final concentration. After 1 hour from the addition of the compounds, a tumor necrosis factor (TNF) α (R & D Systems) was added at 25 ng/ml of the final concentration, and 24 hours later, the culture supernatant was collected. The amount of pro MMP-9 protein in the supernatant was quantified by an enzyme-linked immunosorbent assay (ELISA) (R & D Systems), IC50 values of the test compounds on the increased amount by TNF α stimuli, were calculated by ORIGIN analysis software (trade name: OriginLab). In addition, minimal inhibitory concentration (MIC) of each test compounds (measured bacterium: Staphylococcus aureus ATCC29213) was measured. As a comparative agent […] A (clarithromycin) was used.

[1] = tested on: Staphylococcus aureus ATCC29213; test: Minimal inhibitory concentration (MIC); format: cell-based
Protocol: as §1

SMILES | IC50 (pro MMP-9 protein) | MIC [1]
CC[C@H]1OC(=O)[C@H](C)[C@@H](O[C@H]2C[C@@](C)(OC)[C@@H](OC(C)=O)[C@H](C)O2)[C@H](C)[C@@H](O[C@@H]2O[C@H](C)C[C@@H](N(C)Cc3ccccc3)[C@@H]2N(C)C)[C@@](C)(OC)C[C@@H](C)C(=O)[C@H](C)[C@@H](O)[C@]1(C)O [Example 170, 4″-O-acetyl-3′-N-demethyl-2′-deoxy-2′-dimethylamino-3′-N-benzyl-6-O-methylerythromycin A] | 1.01 µM | > 128 mg/L
CC[C@H]1OC(=O)[C@H](C)[C@@H](O[C@H]2C[C@@](C)(OC)[C@@H](O)[C@H](C)O2)[C@H](C)[C@@H](O[C@@H]2O[C@H](C)C[C@@H](N(C)Cc3ccccc3)[C@@H]2N(C)C)[C@@](C)(OC)C[C@@H](C)C(=O)[C@H](C)[C@@H](O)[C@]1(C)O [Example 171, 3′-N-demethyl-2′-deoxy-2′-dimethylamino-3′-N-benzyl-6-O-methylerythromycin A] | 1.45 µM | > 128 mg/L
CC[C@H]1OC(=O)[C@H](C)[C@@H](O[C@H]2C[C@@](C)(OC)[C@@H](O)[C@H](C)O2)[C@H](C)[C@@H](O[C@@H]2O[C@H](C)C[C@@H](N(C)CCO)[C@@H]2N(C)C)[C@@](C)(OC)C[C@@H](C)C(=O)[C@H](C)[C@@H](O)[C@]1(C)O [Example 173, 3′-N-demethyl-2′-deoxy-2′-dimethylamino-3′-N-(2-hydroxyethyl)-6-O-methylerythromycin A] | 4.95 µM | > 128 mg/L
CC[C@H]1OC(=O)[C@H](C)[C@@H](O[C@H]2C[C@@](C)(OC)[C@@H](OC(C)=O)[C@H](C)O2)[C@H](C)[C@@H](O[C@@H]2O[C@H](C)C[C@@H](NC)[C@@H]2N(C)C)[C@@](C)(OC)C[C@@H](C)C(=O)[C@H](C)[C@@H](O)[C@]1(C)O [Example 174, 4″-O-acetyl-3′-N-demethyl-2′-deoxy-2′-dimethylamino-6-O-methylerythromycin A] | 1.7 µM | > 128 mg/L
CC[C@H]1OC(=O)[C@H](C)[C@@H](O[C@H]2C[C@@](C)(OC)[C@@H](O)[C@H](C)O2)[C@H](C)[C@@H](O[C@@H]2O[C@H](C)C[C@@H](NC)[C@@H]2N(C)C)[C@@](C)(OC)C[C@@H](C)C(=O)[C@H](C)[C@@H](O)[C@]1(C)O [Example 175, 3′-N-demethyl-2′-deoxy-2′-dimethylamino-6-O-methylerythromycin A] | 1.65 µM | 128 mg/L (≈ 168 µM)
CC[C@H]1OC(=O)[C@H](C)[C@@H](O[C@H]2C[C@@](C)(OC)[C@@H](OC(C)=O)[C@H](C)O2)[C@H](C)[C@@H](O[C@@H]2O[C@H](C)C[C@@H](N3CCOCC3)[C@@H]2N(C)C)[C@@](C)(OC)C[C@@H](C)C(=O)[C@H](C)[C@@H](O)[C@]1(C)O [Example 177, 4″-O-acetyl-3′-dedimethylamino-2′-deoxy-2′-dimethylamino-3′-(4-morpholino)-6-O-methylerythromycin A] | 4.42 µM | > 128 mg/L
CC[C@H]1OC(=O)[C@H](C)[C@@H](O[C@H]2C[C@@](C)(OC)[C@@H](O)[C@H](C)O2)[C@H](C)[C@@H](O[C@@H]2O[C@H](C)C[C@@H](N3CCOCC3)[C@@H]2N(C)C)[C@@](C)(OC)C[C@@H](C)C(=O)[C@H](C)[C@@H](O)[C@]1(C)O [Example 178, 3′-dedimethylamino-2′-deoxy-2′-dimethylamino-3′-(4-morpholino)-6-O-methylerythromycin A] | 3.1 µM | > 128 mg/L
CC[C@H]1OC(=O)[C@H](C)[C@@H](O[C@H]2C[C@@](C)(OC)[C@@H](O)[C@H](C)O2)[C@H](C)[C@@H](O[C@@H]2O[C@H](C)C[C@@H](N(C)Cc3ccc(N4CCOCC4)cc3)[C@@H]2N(C)C)[C@@](C)(OC)C[C@@H](C)C(=O)[C@H](C)[C@@H](O)[C@]1(C)O [Example 182, 3′-N-demethyl-2′-deoxy-2′-dimethylamino-3′-N-(4-(4-morpholino)benzyl)methyl-6-O-methylerythromycin A] | 1.72 µM | > 128 mg/L
CC[C@H]1OC(=O)[C@H](C)[C@@H](O[C@H]2C[C@@](C)(OC)[C@@H](OC(C)=O)[C@H](C)O2)[C@H](C)[C@@H](O[C@@H]2O[C@H](C)C[C@@H](N(C)S(C)(=O)=O)[C@@H]2N(C)C)[C@@](C)(OC)C[C@@H](C)C(=O)[C@H](C)[C@@H](O)[C@]1(C)O [Example 185, 4″-O-acetyl-3′-N-demethyl-2′-deoxy-2′-dimethylamino-3′-N-methanesulfonyl-6-O-methylerythromycin A] | 2.4 µM | > 128 mg/L
CC[C@H]1OC(=O)[C@H](C)[C@@H](O[C@H]2C[C@@](C)(OC)[C@@H](O)[C@H](C)O2)[C@H](C)[C@@H](O[C@@H]2O[C@H](C)C[C@@H](N(C)S(C)(=O)=O)[C@@H]2N(C)C)[C@@](C)(OC)C[C@@H](C)C(=O)[C@H](C)[C@@H](O)[C@]1(C)O [Example 186, 3′-N-demethyl-2′-deoxy-2′-dimethylamino-3′-N-methanesulfonyl-6-O-methylerythromycin A] | 4.01 µM | > 128 mg/L

Further lines, results first:

IC50 (pro MMP-9 protein) | MIC [1] | SMILES
1.37 µM | > 128 mg/L | CC[C@H]1OC(=O)[C@H](C)[C@@H](O[C@H]2C[C@@](C)(OC)[C@@H](OC(C)=O)[C@H](C)O2)[C@H](C)[C@@H](O[C@@H]2O[C@H](C)C[C@@H](N(C)Cc3ccncc3)[C@@H]2N(C)C)[C@@](C)(OC)C[C@@H](C)C(=O)[C@H](C)[C@@H](O)[C@]1(C)O [Example 187, 4″-O-acetyl-3′-N-demethyl-2′-deoxy-2′-dimethylamino-3′-N-(4-pyridylmethylamino)-6-O-methylerythromycin A]
3.24 µM | > 128 mg/L | CC[C@H]1OC(=O)[C@H](C)[C@@H](O[C@H]2C[C@@](C)(OC)[C@@H](O)[C@H](C)O2)[C@H](C)[C@@H](O[C@@H]2O[C@H](C)C[C@@H](N(C)Cc3ccncc3)[C@@H]2N(C)C)[C@@](C)(OC)C[C@@H](C)C(=O)[C@H](C)[C@@H](O)[C@]1(C)O [Example 188, 3′-N-demethyl-2′-deoxy-2′-dimethylamino-3′-N-(4-pyridylmethyl)-6-O-methylerythromycin A]
3.38 µM | > 128 mg/L | CC[C@H]1OC(=O)[C@H](C)[C@@H](O[C@H]2C[C@@](C)(OC)[C@@H](OC(C)=O)[C@H](C)O2)[C@H](C)[C@@H](O[C@@H]2O[C@H](C)C[C@@H](N(C)Cc3cccnc3)[C@@H]2N(C)C)[C@@](C)(OC)C[C@@H](C)C(=O)[C@H](C)[C@@H](O)[C@]1(C)O [Example 189, 4″-O-acetyl-3′-N-demethyl-2′-deoxy-2′-dimethylamino-3′-N-(3-pyridylmethyl)-O-methylerythromycin A]
3.82 µM | > 128 mg/L | CC[C@H]1OC(=O)[C@H](C)[C@@H](O[C@H]2C[C@@](C)(OC)[C@@H](O)[C@H](C)O2)[C@H](C)[C@@H](O[C@@H]2O[C@H](C)C[C@@H](N(C)Cc3cccnc3)[C@@H]2N(C)C)[C@@](C)(OC)C[C@@H](C)C(=O)[C@H](C)[C@@H](O)[C@]1(C)O [Example 190, 3′-N-demethyl-2′-deoxy-2′-dimethylamino-3′-N-(3-pyridylmethyl)-6-O-methylerythromycin A]
1.42 µM | 128 mg/L (≈ 143 µM) | CC[C@H]1OC(=O)[C@H](C)[C@@H](O[C@H]2C[C@@](C)(OC)[C@@H](OC(C)=O)[C@H](C)O2)[C@H](C)[C@@H](O[C@@H]2O[C@H](C)C[C@@H](N(C)Cc3ccccn3)[C@@H]2N(C)C)[C@@](C)(OC)C[C@@H](C)C(=O)[C@H](C)[C@@H](O)[C@]1(C)O [Example 191, 4″-O-acetyl-3′-N-demethyl-2′-deoxy-2′-dimethylamino-3′-N-(2-pyridylmethyl)-6-O-methylerythromycin A]
2.46 µM | > 128 mg/L | CC[C@H]1OC(=O)[C@H](C)[C@@H](O[C@H]2C[C@@](C)(OC)[C@@H](O)[C@H](C)O2)[C@H](C)[C@@H](O[C@@H]2O[C@H](C)C[C@@H](N(C)Cc3ccccn3)[C@@H]2N(C)C)[C@@](C)(OC)C[C@@H](C)C(=O)[C@H](C)[C@@H](O)[C@]1(C)O [Example 192, 3′-N-demethyl-2′-deoxy-2′-dimethylamino-3′-N-(2-pyridylmethyl)-6-O-methylerythromycin A]
1.23 µM | > 128 mg/L | CC[C@H]1OC(=O)[C@H](C)[C@@H](O[C@H]2C[C@@](C)(OC)[C@@H](O)[C@H](C)O2)[C@H](C)[C@@H](O[C@@H]2O[C@H](C)C[C@@H](N(C)CCc3ccccc3)[C@@H]2N(C)C)[C@@](C)(OC)C[C@@H](C)C(=O)[C@H](C)[C@@H](O)[C@]1(C)O [Example 194, 3′-N-demethyl-2′-deoxy-2′-dimethylamino-3′-N-(2-phenethyl)-6-O-methylerythromycin A]
2.88 µM | > 128 mg/L | CC[C@H]1OC(=O)[C@H](C)[C@@H](O[C@H]2C[C@@](C)(OC)[C@@H](OC(C)=O)[C@H](C)O2)[C@H](C)[C@@H](O[C@@H]2O[C@H](C)C[C@@H](N(C)CCCO)[C@@H]2N(C)C)[C@@](C)(OC)C[C@@H](C)C(=O)[C@H](C)[C@@H](O)[C@]1(C)O [Example 198, 4″-O-acetyl-3′-N-demethyl-2′-deoxy-2′-dimethylamino-3′-N-(3-hydroxypropyl)-6-O-methylerythromycin A]
